# Key:
# [1] = system: Escherichia coli R477-100; test: Antibacterial activity, MIC by double-microdilution method; type: cell-based; settings: for MIC: R477100, read-out: Gram-negative MIC a; for MIC / Gram-negative MIC a: Table 2, without DTT
# [2] = biological target: T1, E. coli DNA gyrase (Escherichia coli, UniProt P0AES4+P0AES6); test: E. coli Gyrase-DNA cleavage assay; type: biochemical; settings: for linearization of supercoiled DNA with DNA gyrase, after Proteinase K / generation of linear DNA with DNA gyrase, without Proteinase K: absence of ATP; for linearization of supercoiled DNA with DNA gyrase, after Proteinase K: second incubation with SDS and Proteinase K; for generation of linear DNA with DNA gyrase, without Proteinase K / concentration of maximum linear DNA (bell-shaped profile): without Proteinase K treatment; for generation of linear DNA with DNA gyrase, without Proteinase K: buffer with DTT
# T1 construct: purchased TopoGEN
# T1 sequence (P0AES4 whole entry, one chain of several): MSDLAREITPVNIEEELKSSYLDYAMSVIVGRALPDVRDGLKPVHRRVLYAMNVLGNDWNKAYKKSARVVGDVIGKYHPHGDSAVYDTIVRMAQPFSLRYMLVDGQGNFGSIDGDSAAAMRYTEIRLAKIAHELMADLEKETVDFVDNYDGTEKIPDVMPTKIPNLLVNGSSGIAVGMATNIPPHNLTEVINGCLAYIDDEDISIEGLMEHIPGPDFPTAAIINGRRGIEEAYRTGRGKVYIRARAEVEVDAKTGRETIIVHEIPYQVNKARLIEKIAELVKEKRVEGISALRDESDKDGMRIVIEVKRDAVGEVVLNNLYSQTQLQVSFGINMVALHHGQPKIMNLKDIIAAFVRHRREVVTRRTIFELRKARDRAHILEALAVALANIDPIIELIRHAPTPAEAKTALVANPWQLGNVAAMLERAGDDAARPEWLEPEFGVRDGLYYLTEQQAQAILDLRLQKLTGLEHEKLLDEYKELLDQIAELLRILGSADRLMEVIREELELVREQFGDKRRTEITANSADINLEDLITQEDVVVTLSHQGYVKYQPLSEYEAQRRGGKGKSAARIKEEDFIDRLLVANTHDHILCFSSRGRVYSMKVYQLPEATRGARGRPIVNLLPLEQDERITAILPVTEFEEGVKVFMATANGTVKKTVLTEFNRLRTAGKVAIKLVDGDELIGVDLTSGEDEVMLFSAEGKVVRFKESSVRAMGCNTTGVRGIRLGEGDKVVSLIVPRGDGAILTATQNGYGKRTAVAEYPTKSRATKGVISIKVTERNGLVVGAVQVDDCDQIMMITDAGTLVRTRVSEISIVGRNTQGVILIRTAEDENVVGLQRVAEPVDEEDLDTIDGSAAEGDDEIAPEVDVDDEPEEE
# Experimental: E. coli gyrase enzyme was purchased from TopoGEN and the DNA cleavage reactions were based on the protocol of Inspiralis. Assays (30 μL) contained supercoiled (+) pHOT1 plasmid (200 nanograms) and DNA gyrase (5 U as defined by manufacturer) in 35 mM Tris-HCl (pH 7.5), 24 mM KCl, 4 mM MgCl2, 2 mM DTT, 1.8 mM Spermidine, 6.5% (w/v) glycerol and 0.1 mg/mL bovine serum albumin. Reactions were incubated at 37° C. for 60 minutes. Enzyme-DNA cleavage complexes were trapped by adding 3 μL of 2% SDS. Following this, 1.5 μL of 10 mg/mL Proteinase K (Sigma-Aldrich) was added (where relevant) and the reaction mixtures were incubated at 37° C. for 30 minutes to digest the enzyme gyrase. Samples were mixed with 30 μL of loading buffer (40% sucrose, 100 mM Tris-HCl (pH 7.5), 1 mM EDTA, 0.5 mg-ml-1 bromophenol blue) and worked up using 30 μL of 24:1 chloroform/isoamyl alcohol mixture; the aqueous layer was then analyzed using electrophoresis. Electrophoresis, gel staining, DNA visualization and DNA quantification were performed as described for the DNA cleavage assays. DNA double stranded cleavage was monitored by the conversion of supercoiled plasmid to linear DNA and quantified in comparison to a control drug-free reaction.
# To investigate the mechanism of inhibition, a DNA gyrase-induced DNA cleavage assay was performed in the absence of ATP. In this assay, the production of linear DNA from supercoiled DNA is measured as a function of compound concentration. […] Consequently, for the purposes of this assay, it is necessary to perform a second incubation of the reaction mixture with SDS and Proteinase K, which enables the digestion of the DNA gyrase enzyme and thereby ‘frees’ the linear DNA (Form III) so that it moves during electrophoresis.
# [3] = system: Staphylococcus Epidermidis; test: Antibacterial activity, MIC by double-microdilution method; type: cell-based; settings: for MIC: Table 2, read-out: Gram-positive MIC c; for Gram-positive MIC c: Table 2
# [4] = biological target: T1, E. coli DNA gyrase; test: E. coli Gyrase-DNA supercoiling assay; type: biochemical; settings: supercoiling of relaxed pHOT-1 plasmid in presence of ATP; 37° C., 60 minutes
# Experimental: The DNA supercoiling reactions were based on the manufacturer protocol (TopoGEN). The amount of DNA gyrase used in each assay was optimized by testing various dilutions of the stock. The amount sufficient to supercoil 250 nanograms (ng) of the substrate in 1 hour at 37° C. was then used for testing the compounds (1.1 U as defined by manufacturer). Assays (30 μL) contained 250 nanograms of relaxed pHOT1 plasmid DNA in Tris-HCl buffer (35 mM), pH 7.5, containing KCl (24 mM), MgCl2 (4 mM), DTT (2 mM), Spermidine (1.8 mM), ATP (1 mM), 6.5% (w/v) glycerol and bovine serum albumin (0.1 mg/ml). Reactions were incubated at 37° C. for 60 minutes. Reaction mixtures were stopped by the addition of 30 μL of loading buffer (40% sucrose, 100 mM Tris·HCl (pH 7.5), 1 mM EDTA, 0.5 mg×mL^−1 bromophenol blue) and worked up using 30 μL of 24:1 chloroform/isoamyl alcohol mixture; the aqueous layer was then analyzed using electrophoresis.
# Electrophoresis, gel staining, DNA visualization and DNA quantification were performed as described for the DNA cleavage assays.
# [5] = system: Bacillus Subtilis; test: Antibacterial activity, MIC by double-microdilution method; type: cell-based; settings: for MIC / Gram-positive MIC d: Table 2, Bacillus Subtilis; for MIC: read-out: Gram-positive MIC d
# [6] = system: Escherichia coli 25922; test: as above; type: cell-based; settings: for MIC / Gram-negative MIC b: Table 2, Escherichia coli 25922; for MIC: read-out: Gram-negative MIC b
# [7] = system: supercoiled (+) pHOT-1 plasmid DNA; test: DNA cleavage assay (gel electrophoresis); type: biochemical; settings: for DNase activity (cleavage of supercoiled plasmid, form I to form II): absence of adjuvants, HEPES buffer (50 mM, pH 7.4), 5 hours; for concentration giving almost complete smearing of the DNA (multiply nicked DNA): ascorbic acid (0.32 mM), HEPES pH 7.4, 2 hours
# Experimental: Removal of Ligands Prior to Electrophoresis was performed when more than 100 μM of Cu(II)-ligand or Co(III) ligand (at any concentration) complexes were employed that is, for DNA cleavage assays that were performed in the absence of any adjuvants. An Amberlyst® 15 (Sigma Aldrich) ion-exchange resin was prepared according to the reported literature [Hettich et al. J. Am. Chem. Soc. 1997, 119 (24), 5638-5647] and stored at −20° C. Before use, 0.5 gram of the exchanger was mixed with 250 μL of water. After stopping the DNA-cleavage reaction by addition of EDTA (54 mM, 15 minutes incubation at 37° C.), 10 μL of the exchanger suspension was added, vortexed, and incubated at 37° C. for 15 minutes before centrifugation and electrophoresis.
# DNA cleavage activity of the tested Complexes towards supercoiled (+) pHOT-1 plasmid DNA (TopoGEN) was monitored by gel electrophoresis. In a typical experiment, plasmid DNA (200 ng, […]) in HEPES buffer (50 mM, pH 7.4) was mixed with different concentrations of a tested metal complex in the presence or absence of ascorbic acid (0.32 mM). All stock solutions of buffers and of the metal complexes were prepared using HPLC grade water (ChromAR®). Molecular biology reagent grade water (Sigma) was added up to a total reaction volume of 30 μL before incubation for a given time. For the ascorbic acid assays, the reaction was quenched immediately after incubation with EDTA (54 mM). For analysis, 10 μL of loading buffer (40% sucrose, 100 mM Tris-HCl (pH 7.5), 1 mM EDTA, 0.5 mg·mL^−1 bromophenol blue) was added to the incubated solution and loaded onto an agarose (SeaKem LE) gel [1% in TAE×1 buffer (40 mM Tris, 20 mM acetic acid, 1 mM EDTA)]. Electrophoresis was carried out at 60 V for 2 hours. Gels were stained with 1 μg·mL^−1 ethidium bromide for 30 minutes and de-stained in TAE×1 buffer. DNA bands were visualized with medium-range ultraviolet light using Bio-Rad Gel Doc XR+ imaging system. The quantity of different DNA forms (I or II) was estimated using ImageJ software.
# Chem. 2015, 2015 (28), 4722-4730; Kashiba-Iwatsuki et al. FEBS Lett. 1996, 389 (2), 149-15].
# The copper complex of compound 2 (2-Cu(II)) was used as the positive control in these assays.
# [8] = system: Gram-negative and Gram-positive bacteria; test: Comparative antibacterial activity, all tested bacteria; type: cell-based; settings: MIC, Table 2 and 3
# Experimental: Comparative antibacterial activities were determined by measuring the MIC values by using the double-microdilution method according to the National Committee for Clinical Laboratory Standards (NCCLS). The Luria-Bertani growth medium and polypropylene 96-well plates (Thermo) were used unless otherwise stated. All the experiments were performed in triplicate, and analogous results were obtained in three different experiments.
# Compounds 1-6 and their Cu(II) and Co(III) complexes, as well as the pendant-bearing compounds 19-23 and 26 were tested for their comparative antibacterial activity by determining MIC values against two Gram-negative E. coli strains (AR477-100 and 25922) and two Gram-positive strains, Staphylococcus Epidermidis, and Bacillus Subtilis.
SMILES,MIC ([1]; Escherichia coli R477-100) [mg/L],"linearization of supercoiled DNA with DNA gyrase, after Proteinase K [2]",MIC [3] [mg/L],IC50 [4] [µM],MIC [5] [mg/L],MIC [6] [mg/L],Gram-negative MIC a ([1]; Escherichia coli R477-100) [mg/L],"generation of linear DNA with DNA gyrase, without Proteinase K [2]",concentration of maximum linear DNA (bell-shaped profile) [2] [µM],Gram-positive MIC c [3] [mg/L],Gram-positive MIC d [5] [mg/L],Gram-negative MIC b [6] [mg/L],"DNase activity (cleavage of supercoiled plasmid, form I to form II) [7]",concentration giving almost complete smearing of the DNA (multiply nicked DNA) [7] [µM],antibacterial activity (in words) [8],"Gram-negative MIC, DTT 10 mM ([1]; Escherichia coli R477-100, DTT 10 mM) [mg/L]","improvement of MIC in the presence of DTT ([5]; 10 mM DTT vs without DTT, Gram-positive B. Subtilis) [fold]","improvement of MIC in the presence of DTT ([6]; 10 mM DTT vs without DTT, E. coli 25922) [fold]","improvement of MIC in the presence of DTT ([1]; 10 mM DTT vs without DTT, Gram-negative E. coli R477-100)"
O=C(O)c1cn(C2CC2)c2cc(N3CCN(Cc4ccc(CN5CCNCCNCCNCC5)cc4)CC3)c(F)cc2c1=O [Compound 4],12 to 24,significant linearization of DNA,6 to 12,0.15 ± 0.01,6 to 12,12 to 24,,,,,,,,,,,,,
O.O=C(O)c1cn(C2CC2)c2cc(N3CCN(CCCCCCCN4CCNCCNCCNCC4)CC3)c(F)cc2c1=O.[Cu+2] [2-Cu(II)],,linearized the DNA in a similar manner to the metal-free ligands,,0.24 ± 0.03,,,12,able to generate a significant quantity of linear DNA,25,12,12,6,significant cleavage enhancement even in relation to the activity of 1-Cu(II) and 4-Cu(II),20,,,,,
O=C(O)c1cn(C2CC2)c2cc(N3CCN(CCCCCCCN4CCNCCNCCNCC4)CC3)c(F)cc2c1=O [Compound 2],12,significant linearization of DNA,12,0.24 ± 0.03,12,6,,,,,,,,,,,,,
O.O=C(O)c1cn(C2CC2)c2cc(N3CCN(Cc4ccc(CCN5CCNCCNCCNCC5)cc4)CC3)c(F)cc2c1=O.[Co+3].[OH-] [5-Co(III)],,,,,,,3,,,3,3,1.5,,,slightly higher activity,,,,
O.O=C(O)c1cn(C2CC2)c2cc(N3CCN(Cc4ccc(CN5CCNCCNCCNCC5)cc4)CC3)c(F)cc2c1=O.[Cu+2] [4-Cu(II)],,linearized the DNA in a similar manner to the metal-free ligands,,0.14 ± 0.02,,,24,able to generate a significant quantity of linear DNA,25,3,6,12,very significant enhancement in the rates of DNA cleavage,,,3.0,4,4,
O.O=C(O)c1cn(C2CC2)c2cc(N3CCN(CCCCCCN4CCNCCNCCNCC4)CC3)c(F)cc2c1=O.[Cu+2] [1-Cu(II)],,linearized the DNA in a similar manner to the metal-free ligands,,0.1 ± 0.01,,,24,not able to generate linear DNA at any concentration,,24,48,48,very significant enhancement in the rates of DNA cleavage,> 40,,,,,no change whatsoever
O.O=C(O)c1cn(C2CC2)c2cc(N3CCN(Cc4ccc(CCCN5CCNCCNCCNCC5)cc4)CC3)c(F)cc2c1=O.[Co+3].[OH-] [6-Co(III)],,,,,,,6,,,3,3,3,,,slightly higher activity,,,,
O=C(O)c1cn(C2CC2)c2cc(N3CCN(CCCCCCN4CCNCCNCCNCC4)CC3)c(F)cc2c1=O [Compound 1],12,significant linearization of DNA,12,0.13 ± 0.03,12,24,,,,,,,,,,,,,
